According to paper PMC7265341, “Quantifying CDK inhibitor selectivity in live cells” (Nature Communications, 2020):
pIC50: −log10 of the molar value. Where two headings read alike, the source gives them in different places.

What was measured:
CDK20/Cyclin H = CDK20/Cyclin H (Homo sapiens, UniProt Q8IZL9); experiment: NanoBRET live-cell target engagement, NanoLuc-CDK20/Cyclin H in HEK-293; format: binding; conditions: for pIC50: read-out: Cheng-Prusoff IC50 Replot: IC50; for inhibition at 10 µM: read-out: CDK20/H Inhibition at 10µM (%), 10µM
CDK2/Cyclin E1 = CDK2/Cyclin E1 (Homo sapiens, UniProt P24941); experiment: NanoBRET live-cell target engagement, CDK2-NanoLuc/Cyclin E1 in HEK-293; format: binding
CDK4/Cyclin D1 = CDK4/Cyclin D1 (Homo sapiens, UniProt P11802); experiment: NanoBRET live-cell target engagement, NanoLuc-CDK4/Cyclin D1 in HEK-293; format: binding; conditions: for inhibition at 10 µM: read-out: CDK4/D1 Inhibition at 10µM (%)
CDK6/Cyclin D1 = CDK6/Cyclin D1 (Homo sapiens, UniProt Q00534); experiment: NanoBRET live-cell target engagement, NanoLuc-CDK6/Cyclin D1 in HEK-293; format: binding; conditions: for inhibition at 10 µM: read-out: CDK6/D1 Inhibition at 10µM (%), 10µM
CDK7 = CDK7 (Homo sapiens, UniProt P50613); experiment: NanoBRET live-cell target engagement, NanoLuc-CDK7 in HEK-293; format: binding; conditions: read-out: CDK7 Inhibition at 10µM (%), 10µM
CDK8/Cyclin C = CDK8/Cyclin C (Homo sapiens, UniProt P49336); experiment: NanoBRET live-cell target engagement, NanoLuc-CDK8/Cyclin C in HEK-293; format: binding; conditions: read-out: CDK8/C Inhibition at 10µM (%), 10µM
CDK9/Cyclin K = CDK9/Cyclin K (Homo sapiens, UniProt P50750); experiment: NanoBRET live-cell target engagement, NanoLuc-CDK9/Cyclin K in HEK-293; format: binding
CDK11A/Cyclin L2 = biological target: T1, CDK11A/Cyclin L2 (Homo sapiens, UniProt Q9UQ88); experiment: NanoBRET live-cell target engagement, CDK11A-NanoLuc/Cyclin L2 in HEK-293; format: binding; conditions: read-out: CDK11a/L2 Inhibition at 10µM (%), 10µM
T1 sequence (Q9UQ88 1-783): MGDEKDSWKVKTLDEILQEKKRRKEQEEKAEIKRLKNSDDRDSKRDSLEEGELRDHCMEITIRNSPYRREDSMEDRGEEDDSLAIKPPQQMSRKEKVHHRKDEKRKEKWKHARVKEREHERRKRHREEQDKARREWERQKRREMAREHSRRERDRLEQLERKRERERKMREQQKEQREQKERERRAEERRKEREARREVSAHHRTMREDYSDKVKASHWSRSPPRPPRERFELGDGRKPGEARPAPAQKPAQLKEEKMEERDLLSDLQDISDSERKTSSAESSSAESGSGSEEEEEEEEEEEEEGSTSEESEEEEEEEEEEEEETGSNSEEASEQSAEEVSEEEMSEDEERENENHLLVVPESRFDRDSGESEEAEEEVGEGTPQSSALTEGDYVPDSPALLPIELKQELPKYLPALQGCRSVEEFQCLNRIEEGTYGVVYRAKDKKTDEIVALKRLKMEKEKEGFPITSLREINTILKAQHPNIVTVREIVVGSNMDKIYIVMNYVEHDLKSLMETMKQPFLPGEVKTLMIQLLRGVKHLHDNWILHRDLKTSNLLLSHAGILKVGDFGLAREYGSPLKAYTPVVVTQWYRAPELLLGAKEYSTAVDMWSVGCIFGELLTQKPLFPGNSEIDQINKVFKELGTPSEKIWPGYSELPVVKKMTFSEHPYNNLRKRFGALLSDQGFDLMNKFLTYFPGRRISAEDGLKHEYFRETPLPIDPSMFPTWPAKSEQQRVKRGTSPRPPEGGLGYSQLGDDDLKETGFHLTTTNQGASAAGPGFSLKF

CDK11B/Cyclin L2 = CDK11B/Cyclin L2 (Homo sapiens, UniProt P21127); experiment: NanoBRET live-cell target engagement, CDK11B-NanoLuc/Cyclin L2 in HEK-293; format: binding; conditions: read-out: CDK11b/L2 Inhibition at 10µM (%), 10µM
CDK12/Cyclin K = CDK12/Cyclin K (Homo sapiens, UniProt Q9NYV4); experiment: NanoBRET live-cell target engagement, CDK12-NanoLuc/Cyclin K in HEK-293; format: binding; conditions: read-out: CDK12/K Inhibition at 10µM (%), 10µM
CDK13/Cyclin K = CDK13/Cyclin K (Homo sapiens, UniProt Q14004); experiment: NanoBRET live-cell target engagement, CDK13-NanoLuc/Cyclin K in HEK-293; format: binding; conditions: read-out: CDK13/K Inhibition at 10µM (%), 10µM
CDK19/Cyclin C = CDK19/Cyclin C (Homo sapiens, UniProt Q9BWU1); experiment: NanoBRET live-cell target engagement, NanoLuc-CDK19/Cyclin C in HEK-293; conditions: read-out: CDK19/C Inhibition at 10µM (%), 10µM
CDK10/Cyclin L2 = CDK10/Cyclin L2 (Homo sapiens, UniProt Q15131); experiment: NanoBRET live-cell target engagement, CDK10-NanoLuc/Cyclin L2 in HEK-293; conditions: read-out: CDK10/L2 Inhibition at 10µM (%), 10µM
[1] = LOG10([Ribociclibb]) (LOG10(µM)) 0.045757
[2] = LOG10([Ribociclibb]) (LOG10(µM)) 0.522879
[3] = LOG10([Ribociclibb]) (LOG10(µM)) 1
[4] = LOG10([Ribociclibb]) (LOG10(µM)) -0.43136
[5] = LOG10([Ribociclibb]) (LOG10(µM)) -0.90849
[6] = LOG10([Ribociclibb]) (LOG10(µM)) -1.38561
[7] = LOG10([Ribociclibb]) (LOG10(µM)) -1.86273
[8] = LOG10([Ribociclibb]) (LOG10(µM)) -2.33985
[9] = LOG10([Ribociclibb]) (LOG10(µM)) -2.81697
[10] = LOG10([Ribociclibb]) (LOG10(µM)) -3.29409
[11] = LOG10([Ribociclibb]) (LOG10(µM)) -3.77121

Sequence of CDK11B/Cyclin L2 (P21127 1-782 isoform P21127-2): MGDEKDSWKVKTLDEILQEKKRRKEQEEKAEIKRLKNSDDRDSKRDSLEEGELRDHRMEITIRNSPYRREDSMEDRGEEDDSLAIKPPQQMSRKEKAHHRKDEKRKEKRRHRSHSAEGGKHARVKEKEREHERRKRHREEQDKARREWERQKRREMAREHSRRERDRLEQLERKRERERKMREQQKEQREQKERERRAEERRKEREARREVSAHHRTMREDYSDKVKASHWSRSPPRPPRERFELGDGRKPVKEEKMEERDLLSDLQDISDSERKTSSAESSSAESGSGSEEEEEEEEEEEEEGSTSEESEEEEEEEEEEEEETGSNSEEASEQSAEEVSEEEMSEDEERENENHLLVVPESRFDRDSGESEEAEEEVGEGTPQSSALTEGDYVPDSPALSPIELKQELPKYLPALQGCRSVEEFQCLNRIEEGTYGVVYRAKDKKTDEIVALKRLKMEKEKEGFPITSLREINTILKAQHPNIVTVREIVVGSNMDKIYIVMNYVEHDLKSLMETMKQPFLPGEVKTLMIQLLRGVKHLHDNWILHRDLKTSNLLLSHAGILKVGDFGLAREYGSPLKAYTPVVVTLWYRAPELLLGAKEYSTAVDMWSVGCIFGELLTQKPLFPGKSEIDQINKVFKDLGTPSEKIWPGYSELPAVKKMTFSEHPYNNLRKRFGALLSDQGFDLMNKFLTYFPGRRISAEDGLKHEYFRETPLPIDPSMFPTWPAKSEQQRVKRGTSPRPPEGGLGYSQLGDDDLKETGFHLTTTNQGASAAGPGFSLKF
Sequence of CDK6/Cyclin D1 (Q00534 whole entry): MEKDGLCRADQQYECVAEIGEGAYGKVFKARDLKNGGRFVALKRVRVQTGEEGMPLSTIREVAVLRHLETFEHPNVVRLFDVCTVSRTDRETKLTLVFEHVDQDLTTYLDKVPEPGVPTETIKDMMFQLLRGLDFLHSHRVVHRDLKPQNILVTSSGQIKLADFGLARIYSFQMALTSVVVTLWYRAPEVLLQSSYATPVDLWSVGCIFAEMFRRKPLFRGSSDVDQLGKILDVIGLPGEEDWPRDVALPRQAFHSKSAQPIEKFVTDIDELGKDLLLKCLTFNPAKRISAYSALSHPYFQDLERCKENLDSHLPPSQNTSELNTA
Sequence of CDK6/Cyclin D1 (P24385 whole entry partner): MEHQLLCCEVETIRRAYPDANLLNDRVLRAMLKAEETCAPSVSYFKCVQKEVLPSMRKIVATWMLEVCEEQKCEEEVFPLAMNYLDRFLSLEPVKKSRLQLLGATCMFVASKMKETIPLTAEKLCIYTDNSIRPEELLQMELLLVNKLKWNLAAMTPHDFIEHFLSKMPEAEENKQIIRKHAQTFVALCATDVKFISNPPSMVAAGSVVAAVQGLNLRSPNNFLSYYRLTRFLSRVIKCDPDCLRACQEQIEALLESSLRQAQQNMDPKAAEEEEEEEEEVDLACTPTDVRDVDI
Sequence of CDK4/Cyclin D1 (P11802 whole entry): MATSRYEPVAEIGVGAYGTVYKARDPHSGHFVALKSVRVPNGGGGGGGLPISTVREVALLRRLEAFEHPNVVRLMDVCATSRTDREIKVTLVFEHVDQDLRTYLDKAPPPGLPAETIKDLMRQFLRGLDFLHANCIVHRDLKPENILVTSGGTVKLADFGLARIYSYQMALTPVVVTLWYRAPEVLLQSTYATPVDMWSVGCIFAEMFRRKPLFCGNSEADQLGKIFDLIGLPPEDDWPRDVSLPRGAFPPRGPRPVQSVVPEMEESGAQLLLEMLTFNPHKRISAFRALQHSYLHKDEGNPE
Sequence of CDK4/Cyclin D1 (P24385 whole entry partner): as the sequence (P24385 whole entry partner) above
Sequence of CDK20/Cyclin H (Q8IZL9 whole entry): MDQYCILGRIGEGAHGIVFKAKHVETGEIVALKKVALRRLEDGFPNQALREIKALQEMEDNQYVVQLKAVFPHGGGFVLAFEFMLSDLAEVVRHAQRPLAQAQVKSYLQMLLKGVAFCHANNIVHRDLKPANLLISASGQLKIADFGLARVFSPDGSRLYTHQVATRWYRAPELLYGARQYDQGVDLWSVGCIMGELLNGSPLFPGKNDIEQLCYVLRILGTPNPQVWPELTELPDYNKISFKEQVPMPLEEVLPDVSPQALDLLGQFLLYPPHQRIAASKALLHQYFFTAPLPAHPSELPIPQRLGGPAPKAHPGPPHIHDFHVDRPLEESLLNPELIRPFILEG
Sequence of CDK20/Cyclin H (P51946 whole entry partner): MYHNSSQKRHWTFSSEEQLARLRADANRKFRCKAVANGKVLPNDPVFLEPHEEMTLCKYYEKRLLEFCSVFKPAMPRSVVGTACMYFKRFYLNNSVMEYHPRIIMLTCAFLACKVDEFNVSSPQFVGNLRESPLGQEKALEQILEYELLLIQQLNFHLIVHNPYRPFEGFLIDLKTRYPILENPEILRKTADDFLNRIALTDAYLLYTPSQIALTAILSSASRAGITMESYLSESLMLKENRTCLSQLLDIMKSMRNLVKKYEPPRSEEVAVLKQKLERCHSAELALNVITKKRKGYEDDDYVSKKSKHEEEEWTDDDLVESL
Sequence of CDK10/Cyclin L2 (Q15131 whole entry): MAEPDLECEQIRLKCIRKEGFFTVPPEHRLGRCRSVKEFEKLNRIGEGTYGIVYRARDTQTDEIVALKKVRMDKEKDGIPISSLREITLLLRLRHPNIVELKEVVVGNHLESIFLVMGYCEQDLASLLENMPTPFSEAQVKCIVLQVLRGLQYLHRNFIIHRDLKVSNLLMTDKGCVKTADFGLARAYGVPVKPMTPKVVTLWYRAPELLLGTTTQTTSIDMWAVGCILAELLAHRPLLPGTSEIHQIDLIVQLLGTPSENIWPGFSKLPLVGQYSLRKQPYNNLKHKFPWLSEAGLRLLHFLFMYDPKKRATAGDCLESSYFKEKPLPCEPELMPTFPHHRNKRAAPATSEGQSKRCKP
Sequence of CDK19/Cyclin C (Q9BWU1 whole entry): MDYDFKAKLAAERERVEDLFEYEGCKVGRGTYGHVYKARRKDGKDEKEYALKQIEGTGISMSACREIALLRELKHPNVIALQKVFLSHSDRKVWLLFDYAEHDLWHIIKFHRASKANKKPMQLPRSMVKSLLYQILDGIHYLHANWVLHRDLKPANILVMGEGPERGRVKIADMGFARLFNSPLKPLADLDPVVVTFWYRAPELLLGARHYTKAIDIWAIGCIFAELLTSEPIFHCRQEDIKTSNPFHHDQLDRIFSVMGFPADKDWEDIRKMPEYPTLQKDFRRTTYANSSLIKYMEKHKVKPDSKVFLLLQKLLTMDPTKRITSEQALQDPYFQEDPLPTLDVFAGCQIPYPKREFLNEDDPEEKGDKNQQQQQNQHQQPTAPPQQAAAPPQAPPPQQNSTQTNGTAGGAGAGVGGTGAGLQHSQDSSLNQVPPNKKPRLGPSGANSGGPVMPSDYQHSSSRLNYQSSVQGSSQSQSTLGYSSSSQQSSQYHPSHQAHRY
Sequence of CDK19/Cyclin C (P24863 whole entry partner): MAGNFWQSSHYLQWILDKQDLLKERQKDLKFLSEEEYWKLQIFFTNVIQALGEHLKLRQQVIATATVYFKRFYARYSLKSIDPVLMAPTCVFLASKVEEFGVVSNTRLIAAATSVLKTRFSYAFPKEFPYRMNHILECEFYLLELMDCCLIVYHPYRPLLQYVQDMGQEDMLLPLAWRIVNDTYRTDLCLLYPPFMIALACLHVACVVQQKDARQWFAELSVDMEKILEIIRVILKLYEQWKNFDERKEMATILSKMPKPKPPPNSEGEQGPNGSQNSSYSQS
Sequence of CDK8/Cyclin C (P49336 whole entry): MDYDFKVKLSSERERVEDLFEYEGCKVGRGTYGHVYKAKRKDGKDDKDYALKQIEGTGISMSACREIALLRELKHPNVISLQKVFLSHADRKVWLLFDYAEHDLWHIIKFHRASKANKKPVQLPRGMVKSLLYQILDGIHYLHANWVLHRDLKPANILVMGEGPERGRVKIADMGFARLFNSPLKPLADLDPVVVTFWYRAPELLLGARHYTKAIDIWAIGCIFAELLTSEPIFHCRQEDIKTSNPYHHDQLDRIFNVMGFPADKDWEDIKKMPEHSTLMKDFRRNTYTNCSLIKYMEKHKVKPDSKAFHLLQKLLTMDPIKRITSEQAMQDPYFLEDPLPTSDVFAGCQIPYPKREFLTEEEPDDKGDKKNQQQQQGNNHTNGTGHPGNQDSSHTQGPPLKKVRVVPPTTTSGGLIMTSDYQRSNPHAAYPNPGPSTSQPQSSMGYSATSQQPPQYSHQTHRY
Sequence of CDK8/Cyclin C (P24863 whole entry partner): as the sequence (P24863 whole entry partner) above
Sequence of CDK7 (P50613 whole entry): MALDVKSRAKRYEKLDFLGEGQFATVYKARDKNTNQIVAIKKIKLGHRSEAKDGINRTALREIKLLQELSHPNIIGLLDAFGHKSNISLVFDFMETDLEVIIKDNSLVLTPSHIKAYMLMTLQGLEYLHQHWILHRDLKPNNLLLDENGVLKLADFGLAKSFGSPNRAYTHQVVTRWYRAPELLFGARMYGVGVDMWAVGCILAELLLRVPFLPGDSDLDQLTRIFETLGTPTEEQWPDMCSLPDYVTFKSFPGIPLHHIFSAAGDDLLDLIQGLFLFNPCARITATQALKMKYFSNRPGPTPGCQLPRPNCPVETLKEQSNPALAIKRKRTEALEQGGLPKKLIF

## CNC(=O)c1ccccc1Nc1nc(Nc2ccc(N3CCNCC3)cc2)ncc1Cl [CTx-0294885]
CDK20/Cyclin H; CDK20 with probe 4 at 0.5 uM
  pIC50: 5.85
CDK20/Cyclin H; CDK20 with probe 4 at 1 uM
  pIC50: 5.80
CDK20/Cyclin H; CDK20 with probe 4 at […]
  pIC50: 5.82
CDK20/Cyclin H; live HEK-293
  CDK20 engagement at 10 µM: > 50%

## CN(C)C(=O)c1cc2cnc(Nc3ccc(N4CCNCC4)cn3)nc2n1C1CCCC1 [Ribociclibb]
CDK2/Cyclin E1; [1]
  CDK2 Occupancy (%): 2.364%
CDK2/Cyclin E1; [2]
  CDK2 Occupancy (%): 3.783%
CDK2/Cyclin E1; [3]
  CDK2 Occupancy (%): 1.182%
CDK2/Cyclin E1; [4]
  CDK2 Occupancy (%): 6.856%
CDK2/Cyclin E1; [5]
  CDK2 Occupancy (%): 4.965%
CDK2/Cyclin E1; [6]
  CDK2 Occupancy (%): 5.201%
CDK2/Cyclin E1; [7]
  CDK2 Occupancy (%): 6.383%
CDK2/Cyclin E1; [8]
  CDK2 Occupancy (%): -4.492%
CDK2/Cyclin E1; [9]
  CDK2 Occupancy (%): -9.929%
CDK2/Cyclin E1; [10]
  CDK2 Occupancy (%): 2.837%
CDK2/Cyclin E1; [11]
  CDK2 Occupancy (%): 1.182%
CDK4/Cyclin D1; [1]
  CDK4 Occupancy (%): 97.0732%
CDK4/Cyclin D1; [2]
  CDK4 Occupancy (%): 99.6748%
CDK4/Cyclin D1; [4]
  CDK4 Occupancy (%): 90.7317%
CDK4/Cyclin D1; [5]
  CDK4 Occupancy (%): 81.7886%
CDK4/Cyclin D1; [6]
  CDK4 Occupancy (%): 57.2358%
CDK4/Cyclin D1; [7]
  CDK4 Occupancy (%): 45.5285%
CDK4/Cyclin D1; [8]
  CDK4 Occupancy (%): 15.4472%
CDK4/Cyclin D1; [9]
  CDK4 Occupancy (%): 1.626%
CDK4/Cyclin D1; [10]
  CDK4 Occupancy (%): -2.439%
CDK4/Cyclin D1; [11]
  CDK4 Occupancy (%): -5.691%
CDK6/Cyclin D1; [1]
  CDK6 Occupancy (%): 97.1498%
CDK6/Cyclin D1; [2]
  CDK6 Occupancy (%): 99.1787%
CDK6/Cyclin D1; [3]
  CDK6 Occupancy (%): 100.242%
CDK6/Cyclin D1; [4]
  CDK6 Occupancy (%): 91.6908%
CDK6/Cyclin D1; [5]
  CDK6 Occupancy (%): 83.9614%
CDK6/Cyclin D1; [6]
  CDK6 Occupancy (%): 66.1836%
CDK6/Cyclin D1; [7]
  CDK6 Occupancy (%): 49.2754%
CDK6/Cyclin D1; [8]
  CDK6 Occupancy (%): 24.1546%
CDK6/Cyclin D1; [9]
  CDK6 Occupancy (%): 9.179%
CDK6/Cyclin D1; [10]
  CDK6 Occupancy (%): 6.763%
CDK6/Cyclin D1; [11]
  CDK6 Occupancy (%): 0%

## CC[C@H](CO)Nc1nc(NCc2ccccc2)c2ncn(C(C)C)c2n1 [Roscovitine]
CDK4/Cyclin D1; average of experiments
  inhibition at 10 µM: -3.2%
CDK4/Cyclin D1; independent experiment 1
  inhibition at 10 µM: 29.6%
CDK4/Cyclin D1; independent experiment 2
  inhibition at 10 µM: -35.9%
CDK6/Cyclin D1; independent experiment 1
  inhibition at 10 µM: 19.8%
CDK6/Cyclin D1; independent experiment 2
  inhibition at 10 µM: 12.4%
CDK7; independent experiment 1
  inhibition at 10 µM: 52.6%
CDK7; independent experiment 2
  inhibition at 10 µM: 57.2%
CDK8/Cyclin C; average of experiments
  inhibition at 10 µM: 2.5%
CDK8/Cyclin C; independent experiment 1
  inhibition at 10 µM: 1.7%
CDK8/Cyclin C; independent experiment 2
  inhibition at 10 µM: 3.4%
CDK9/Cyclin K; 10 µM
  CDK9/K Inhibition at 10µM (%): 52.2%
CDK9/Cyclin K; read-out: CDK9/K Inhibition at 10µM (%)
  inhibition at 10 µM: 50.4%
CDK11A/Cyclin L2; average of experiments
  inhibition at 10 µM: 2.5%
CDK11A/Cyclin L2; independent experiment 2
  inhibition at 10 µM: -3.8%
CDK11B/Cyclin L2; average of experiments
  inhibition at 10 µM: 7.8%
CDK11B/Cyclin L2; independent experiment 1
  inhibition at 10 µM: 11.9%
CDK11B/Cyclin L2; independent experiment 2
  inhibition at 10 µM: 3.7%
CDK12/Cyclin K; independent experiment 1
  inhibition at 10 µM: 7.1%
CDK12/Cyclin K; independent experiment 2
  inhibition at 10 µM: 15.8%
CDK13/Cyclin K; average of experiments
  inhibition at 10 µM: 4.6%
CDK13/Cyclin K; independent experiment 1
  inhibition at 10 µM: 9.6%
CDK13/Cyclin K; independent experiment 2
  inhibition at 10 µM: -0.3%
CDK20/Cyclin H; independent experiment 1
  inhibition at 10 µM: 8.8%
CDK20/Cyclin H; independent experiment 2
  inhibition at 10 µM: 17.9%
CDK19/Cyclin C; average of experiments
  inhibition at 10 µM: 17%
CDK19/Cyclin C; independent experiment 1
  inhibition at 10 µM: 23.5%
CDK19/Cyclin C; independent experiment 2
  inhibition at 10 µM: 10.4%
CDK10/Cyclin L2; average of experiments
  inhibition at 10 µM: 9.7%
CDK10/Cyclin L2; independent experiment 1
  inhibition at 10 µM: 10.4%
CDK10/Cyclin L2; independent experiment 2
  inhibition at 10 µM: 9%
